Test results published in PubChem BioAssay AID2060614 (Molecular Pharmacology Branch, DTP, NCI, 2025).

Tested on: 598228-144-R-J1-PDC complex spheroids, viability
Test: Anticancer human tumor 598228-144-R-J1-PDC patient-derived serous endometrial adenocarcinoma cell line growth inhibition [CLK]
Details: for IC50: curve of first compound; for viability, T/C: stronger effect = lower value
Outline: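 Multi-cell-type spheroids combined patient-derived tumor cells with HUVEC endothelial cells and human mesenchymal stem cells. Paired agents were dosed in half-log steps down from about clinical Cmax, or from 10 microM where Cmax was unknown.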

[1] = second compound 0.0316 µM, first compound 0.0316 µM
[2] = second compound 0.0316 µM, first compound 0.1 µM
[3] = second compound 0.0316 µM, first compound 0.316 µM
[4] = second compound 0.0316 µM, first compound 1 µM
[5] = second compound 0.1 µM, first compound 0.0316 µM
[6] = second compound 0.1 µM, first compound 0.1 µM
[7] = second compound 0.1 µM, first compound 0.316 µM
[8] = second compound 0.1 µM, first compound 1 µM
[9] = second compound 0.316 µM, first compound 0.0316 µM
[10] = second compound 0.316 µM, first compound 0.1 µM
[11] = second compound 0.316 µM, first compound 0.316 µM
[12] = second compound 0.316 µM, first compound 1 µM
[13] = second compound 1 µM, first compound 0.0316 µM
[14] = second compound 1 µM, first compound 0.1 µM
[15] = second compound 1 µM, first compound 0.316 µM
[16] = second compound 1 µM, first compound 1 µM
[17] = second compound 3.16 µM, first compound 0.0316 µM
[18] = second compound 3.16 µM, first compound 0.1 µM
[19] = second compound 3.16 µM, first compound 0.316 µM
[20] = second compound 3.16 µM, first compound 1 µM
[21] = second compound 10 µM, first compound 0.0316 µM
[22] = second compound 10 µM, first compound 0.1 µM
[23] = second compound 10 µM, first compound 0.316 µM
[24] = second compound 10 µM, first compound 1 µM
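Also: spheroids exposed to compounds for seven days before readout.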
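For viability, T/C in this document: 100% = DMSO vehicle control wells.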

## CC(=O)O[C@H]1C(=O)[C@@]2(C)[C@H]([C@H](OC(=O)c3ccccc3)[C@]3(O)C[C@H](OC(=O)[C@H](O)[C@@H](NC(=O)c4ccccc4)c4ccccc4)C(C)=C1C3(C)C)[C@]1(OC(C)=O)CO[C@@H]1C[C@@H]2O + CN1CCN(c2cc(C(=O)Nc3cc4cc(-c5cnn(C)c5)ccc4cn3)ccn2)CC1
Second compound 0.0316 µM
  IC50: < 31.6 nM
Second compound 0.1 µM
  IC50: > 10000 nM
Second compound 0.316 µM
  IC50: < 31.6 nM
Second compound 1 µM
  IC50: < 31.6 nM
Second compound 3.16 µM
  IC50: < 31.6 nM
Second compound 10 µM
  IC50: < 31.6 nM
[1]
  viability, T/C: 40.8%
[2]
  viability, T/C: 44.8%
[3]
  viability, T/C: 32.3%
[4]
  viability, T/C: 34.3%
Second compound 0.0316 µM, first compound 3.16 µM
  viability, T/C: 33.1%
Second compound 0.0316 µM, first compound 10 µM
  viability, T/C: 37.7%
[5]
  viability, T/C: 72.7%
[6]
  viability, T/C: 61.2%
[7]
  viability, T/C: 58.8%
[8]
  viability, T/C: 64.5%
Second compound 0.1 µM, first compound 3.16 µM
  viability, T/C: 51.6%
Second compound 0.1 µM, first compound 10 µM
  viability, T/C: 51.1%
[9]
  viability, T/C: 19%
[10]
  viability, T/C: 15.1%
[11]
  viability, T/C: 20.1%
[12]
  viability, T/C: 14.2%
Second compound 0.316 µM, first compound 3.16 µM
  viability, T/C: 18%
Second compound 0.316 µM, first compound 10 µM
  viability, T/C: 18.5%
[13]
  viability, T/C: 1.6%
[14]
  viability, T/C: 1.9%
[15]
  viability, T/C: 4.17%
[16]
  viability, T/C: 1.92%
Second compound 1 µM, first compound 3.16 µM
  viability, T/C: 2.39%
Second compound 1 µM, first compound 10 µM
  viability, T/C: 1.8%
[17]
  viability, T/C: 1.6%
[18]
  viability, T/C: 3.09%
[19]
  viability, T/C: 2.8%
[20]
  viability, T/C: 1.31%
Second compound 3.16 µM, first compound 3.16 µM
  viability, T/C: 1.95%
Second compound 3.16 µM, first compound 10 µM
  viability, T/C: 2.83%
[21]
  viability, T/C: 2.83%
[22]
  viability, T/C: 0.86%
[23]
  viability, T/C: 2.92%
[24]
  viability, T/C: 1.09%
Second compound 10 µM, first compound 3.16 µM
  viability, T/C: 2.45%
Second compound 10 µM, first compound 10 µM
  viability, T/C: 2.11%

## CCc1c2c(nc3ccc(O)cc13)-c1cc3c(c(=O)n1C2)COC(=O)[C@]3(O)CC + CN1CCN(c2cc(C(=O)Nc3cc4cc(-c5cnn(C)c5)ccc4cn3)ccn2)CC1
Second compound 0.0316 µM
  IC50: 68.3 nM
Second compound 0.1 µM
  IC50: 96 nM
Second compound 0.316 µM
  IC50: < 3.16 nM
Second compound 1 µM
  IC50: < 3.16 nM
Second compound 3.16 µM
  IC50: < 3.16 nM
Second compound 10 µM
  IC50: < 3.16 nM
Second compound 0.0316 µM, first compound 0.00316 µM
  viability, T/C: 104%
Second compound 0.0316 µM, first compound 0.01 µM
  viability, T/C: 91.3%
[1]
  viability, T/C: 73.8%
[2]
  viability, T/C: 39.2%
[3]
  viability, T/C: 16.6%
[4]
  viability, T/C: 13.1%
Second compound 0.1 µM, first compound 0.00316 µM
  viability, T/C: 152%
Second compound 0.1 µM, first compound 0.01 µM
  viability, T/C: 121%
[5]
  viability, T/C: 84%
[6]
  viability, T/C: 47.4%
[7]
  viability, T/C: 23.3%
[8]
  viability, T/C: 9.49%
Second compound 0.316 µM, first compound 0.00316 µM
  viability, T/C: 17.4%
Second compound 0.316 µM, first compound 0.01 µM
  viability, T/C: 17.4%
[9]
  viability, T/C: 18.3%
[10]
  viability, T/C: 13.1%
[11]
  viability, T/C: 5.94%
[12]
  viability, T/C: 5.35%
Second compound 1 µM, first compound 0.00316 µM
  viability, T/C: 1.34%
Second compound 1 µM, first compound 0.01 µM
  viability, T/C: 0.98%
[13]
  viability, T/C: 2.66%
[14]
  viability, T/C: 0.5%
[15]
  viability, T/C: 2.92%
[16]
  viability, T/C: 4.75%
Second compound 3.16 µM, first compound 0.00316 µM
  viability, T/C: 1.44%
Second compound 3.16 µM, first compound 0.01 µM
  viability, T/C: 1.88%
[17]
  viability, T/C: 0.95%
[18]
  viability, T/C: 1.2%
[19]
  viability, T/C: 2.83%
[20]
  viability, T/C: 4.75%
Second compound 10 µM, first compound 0.00316 µM
  viability, T/C: 0.83%
Second compound 10 µM, first compound 0.01 µM
  viability, T/C: 0.62%
[21]
  viability, T/C: 2.12%
[22]
  viability, T/C: 0.62%
[23]
  viability, T/C: 6.02%
[24]
  viability, T/C: 4.41%
